Results from patent US20160184230A1, “MELT-PROCESSED POLYMERIC CELLULAR DOSAGE FORM” (priority 2014, published 2016).

Assay: Compression tests of solid excipient (ASTM D695-10)
Assay type: physicochemical
Details: compression-molded sample
Description: Compression tests were performed on pure PEG and PEO specimen. The ASTM standard test method for compressive properties of rigid plastics, ASTM D695-10, was used as the protocol to execute compression tests. The testing machine was a Zwick Roell Z2.5 with a 2.5 kN load cell (Zwick GmbH & Co. KG, Ulm, Germany), equipped with compression platens. A speed of 1.3 mm/min was applied for the platens to move relatively towards each other.

Compressive strength: 0.8 MPa | Strain at fracture: <0.02
SMILES: OC[C@@H](O)[C@@H](O)[C@H](O)[C@H](O)CO [Mannitol]
